Reference: US11685761B2, “Cyclic di-nucleotide compounds as sting agonists” (Merck Sharp & Dohme Corp., priority 2017, dated 2023)
Like-named read-outs stand apart in the source and are kept apart here.

Assays:
full-length HAQ STING = target: T1, full-length HAQ STING (Homo sapiens, UniProt Q86WV6, G230A/H232R/R293Q/R71H); assay: 3H-cGAMP filtration binding assay (HAQ STING); conditions: competition with tritiated cGAMP ligand; T. ni cell membranes overexpressing full-length HAQ STING
T1 construct: made in house; host or cells: Trichoplusia ni (Hi-Five) insect cells, baculovirus generated in Sf21; crude membranes
From the text: The ability of compounds to bind STING is quantified by the ability to compete with tritiated cGAMP ligand for human STING receptor membrane using a radioactive filter-binding assay. The binding assay employs STING receptor obtained from Hi-Five cell membranes overexpressing full-length HAQ STING prepared in-house and tritiated cGAMP ligand also purified in-house.
The ability of compounds to bind STING is quantified by their ability to compete with tritiated cGAMP ligand for human STING receptor membrane using a radioactive filter-binding assay. The binding assay employs STING receptor obtained from Trichoplusia ni cell membranes (T. ni; Expression Systems, cat #94-002F, www.expressionsystems.com) overexpressing full-length HAQ STING and tritiated cGAMP ligand.
The basic HAQ STING filtration assay protocol is as follows:
The compounds were serially titrated by the Hamilton STARPlus CORE in a 96-well plate (Greiner, #651201) using a 1:3 ten-point dose response format. […] 148 uL of prepared membrane was then manually added to each well of a 96-well deep-well polypropylene plate (Fisher Scientific, #12-566-121). Following membrane addition, 2 uL of either titrated test compound, DMSO control (Sigma #276855), or cold cGAMP control was added to the appropriate wells using a BIOMEK FX. Compound and membrane then preincubated for 60 min at RT to allow compound binding to equilibrate. Following equilibration, 8 nM of [^3H] c-GAMP ligand was prepared by diluting into assay buffer, and 50 uL of this working stock was then manually added to each well of the assay plate. Plates were then incubated at RT for 60 min, and the contents of each assay plate were then filtered through a 96-well GF/B filter plate (PerkinElmer, #6005250) using a TOMTEC MACH III Cell Harvester equipped with 20 mM HEPES buffer (Fisher Scientific, #BP299500). The filter plates were then dried at 55° C. for 30 min using a pressurized oven before 30 uL of ULTIMA GOLD F scintillate was added to each well. Tritium levels for each reaction well were then measured using a PerkinElmer TopCount plate reader.
After normalization to controls, the percent activity for each compound concentration was calculated by measuring the amount of remaining radioactivity. The plot of percent activity versus the log of compound concentration was fit with a 4-parameter dose response equation to calculate EC50 values.

[1] = tested on: IFN-β secretion from THP1 cells; assay: IFN-β secretion in THP1 cell culture (5 h); type: cell-based, human; conditions: for activation at 30 µM: Homo sapiens, THP1 cells, 5 h incubation, compound at 30 μM, 30 uM cGAMP = 100%, read-out: % Effect at 30 μM relative to 2′3′-cGAMP
Method: The ability of compounds to stimulate the secretion of interferon-beta from THP1 cells was measured using a human IFN-β AlphaLISA kit (Perkin Elmer, Cat. No. AL265F). The basic protocol is as follows:
The cell viability and count was ascertained using a Beckman Coulter V-Cell XR cell counter. The cell suspension was centrifuged at 200×g for 5 min at RT. Cells were resuspended to a density of 0.8×10^6/mL in 37° C. assay medium. Subsequent liquid transfers were performed using either a Matrix electronic multichannel pipette or an Agilent Bravo Automated Liquid Handling Platform.
The assay was started by dispensing 40 μL of the previously prepared cell suspension into the wells of the plate containing compounds. After 5 h incubation at 37° C., 5% CO2 in a humidified atmosphere, the plate of cells and compounds was centrifuged at 200×g for 5 min at RT. […] To these supernatant-containing wells was added 10 μL of 5× Anti-Analyte Acceptor beads (50 μg/mL of AlphaLISA HiBlock Buffer) and incubated for 30 min at RT while shaking on an orbital plate shaker. To each well was added 10 μL of 5× Biotinylated Antibody Anti-analyte (5 nM in AlphaLISA HiBlock Buffer) and incubated on an orbital plate shaker for 60 min at RT or overnight at 4° C. To each well was added 25 μL of 2× SA-Donor beads (80 μg/mL in AlphaLISA HiBlock Buffer) and incubated for 30-45 min at RT in the dark while shaking on an orbital plate shaker. The plate was then read on a Perkin Elmer Envision (λex680 nm, λem=570 nm). The percent effect of the AlphaLISA signal at each compound concentration was calculated based on 30 uM cGAMP positive controls and 0.3% DMSO negative controls. The plot of percent effect versus the log of compound concentration was fit with a 4-parameter concentration response equation to calculate EC50 values.
Compounds of the disclosure were evaluated for IFN-β secretion in THP1 cell culture as described above.

T1 sequence (Q86WV6 with tags, fused parts or gaps R71H/G230A/H232R/R293Q): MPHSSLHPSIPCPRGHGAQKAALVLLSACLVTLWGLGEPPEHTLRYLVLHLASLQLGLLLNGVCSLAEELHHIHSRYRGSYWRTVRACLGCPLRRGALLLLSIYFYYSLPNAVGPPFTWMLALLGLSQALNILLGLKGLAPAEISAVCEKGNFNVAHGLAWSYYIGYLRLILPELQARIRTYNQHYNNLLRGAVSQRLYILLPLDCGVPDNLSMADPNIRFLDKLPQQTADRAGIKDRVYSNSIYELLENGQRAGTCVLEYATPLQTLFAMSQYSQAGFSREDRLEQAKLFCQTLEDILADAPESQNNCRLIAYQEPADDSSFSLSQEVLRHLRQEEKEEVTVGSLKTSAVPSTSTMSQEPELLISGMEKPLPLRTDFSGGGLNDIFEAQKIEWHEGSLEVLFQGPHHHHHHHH

| Structure (SMILES) | EC50 (full-length HAQ STING) | activation at 30 µM ([1]; THP-1, 5 h) | activation at 30 µM ([1]; THP-1) | % Effect at 30 μM relative to 2′3′-cGAMP [1] |
| --- | --- | --- | --- | --- |
| Nc1ncnc2c1ncn2[C@@H]1S[C@@H]2COP(=O)(S)OC3[C@H](n4cnc5c(=O)n6cc[nH]c6nc54)O[C@H](COP(=O)(S)OC2C1O)[C@H]3F (stereo in doubt) [Example 17, 3-[(5R,7R,8R,12aR,14R,15S,15aR,16R)-14-(6-amino-9H-purin-9-yl)-16-fluoro-15-hydroxy-2,10-dioxido-2,10-disulfanyloctahydro-12H-5,8-methanothieno[3,2-l][1,3,6,9,11,2,10]pentaoxadiphosphacyclotetradecin-7-yl]-3,5-dihydro-9H-imidazo[1,2-a]purin-9-one] | 3 nM | 122% | – | – |
| Nc1ncnc2c1ncn2[C@@H]1O[C@@]23CO[C@@H]1[C@@H]2OP(=O)(S)OC[C@H]1O[C@@H](n2ccc(=O)n4ccnc24)[C@H](OP(=O)(S)OC3)[C@@H]1O (stereo partly drawn) [Example 6, 8-[(5R,7R,8R,12aR,14R,15R,15aS,18R)-14-(6-amino-9H-purin-9-yl)-18-hydroxy-2,10-dioxido-2,10-disulfanylhexahydro-14H-15,12a-(epoxymethano)-5,8-methanofuro[3,2-l] [1,3,6,9,11,2,10]pentaoxadiphosphacyclotetradecin-7(12H)-yl]imidazo[1,2-a]pyrimidin-5(8H)-one] | 28 nM | 145% | – | – |
| Nc1ncnn2c([C@H]3C[C@@H]4O[P@@](=O)(S)OC[C@H]5O[C@@H](n6ccc(=O)n7ccnc67)[C@H](O[P@](=O)(S)OC[C@H]4O3)[C@@H]5O)cnc12 [Example 7, 8-[(2S,5R,7R,8R,10R,12aR,14R,15aS,16R)-14-(4-aminoimidazo[2,1-f][1,2,4]triazin-7-yl)-16-hydroxy-2,10-dioxido-2,10-disulfanyl-octahydro-12H-5,8-methanofuro[3,2-l][1,3,6,9,11,2,10]pentaoxadiphosphacyclotetradecin-7-yl]imidazo [1,2-a]pyrimidin-5(8H)-one] | 2 nM | 140% | – | – |
| Nc1ccnc2c1nnn2[C@H]1C[C@@H]2OP(=O)(S)OC[C@H]3O[C@@H](n4ccc(=O)n5ccnc45)[C@H](OP(=O)(S)OC[C@H]2O1)[C@@H]3O (stereo partly drawn) [Example 18, 8-[(5R,7R,8R,12aR,14R,15aS,16R)-14-(7-amino-3H-[1,2,3]triazolo[4,5-b]pyridin-3-yl)-16-hydroxy-2,10-dioxido-2,10-disulfanyloctahydro-12H-5,8-methanofuro[3,2-l][1,3,6,9,11,2,10]pentaoxadiphosphacyclotetradecin-7-yl]imidazo[1,2-a]pyrimidin-5(8H)-one] | 126 nM | 124% | – | – |
| Nc1ncnc2c1nnn2[C@@H]1O[C@@H]2COP(=O)(S)O[C@@H]3C[C@@H](COP(=O)(S)O[C@H]2[C@@H]1F)O[C@H]3n1cnc2c(=O)n3cc[nH]c3nc21 (stereo partly drawn) [Example 28, 3-[(5S,7R,8R,12aR,14R,15S,15aR)-14-(7-amino-3H-[1,2,3]triazolo[4,5-d]pyrimidin-3-yl)-15-fluoro-2,10-dioxido-2,10-disulfanyloctahydro-12H-5,8-methanofuro[3,2-l] [1,3,6,9,11,2,10]pentaoxadiphosphacyclotetradecin-7-yl]-3,5-dihydro-9H-imidazo[1,2-a]purin-9-one] | 41 nM | 143% | – | – |
| O=c1ccn([C@@H]2O[C@@H]3COP(=O)(S)O[C@@H]4[C@H](O)[C@@H](COP(=O)(S)O[C@H]3[C@H]2O)O[C@H]4n2ccc(=O)n3ccnc23)c2nccn12 (stereo partly drawn) [Example 30, 8,8′-[(5R,7R,8R,12aR,14R,15R,15aS,16R)-15,16-dihydroxy-2,10-dioxido-2,10-disulfanyloctahydro-12H-5,8-methanofuro[3,2-l][1,3,6,9,11,2,10]pentaoxadiphosphacyclo-tetradecine-7,14-diyl]bisimidazo[1,2-a]pyrimidin-5(8H)-one] | 37 nM | – | 127% | – |
| Nc1nc2c(ncn2[C@@H]2O[C@@H]3COP(=O)(S)O[C@H]4[C@@H](O)[C@H](n5ccc(=O)n6ccnc56)O[C@@H]4COP(=O)(S)O[C@@H]2[C@@H]3F)c(=O)[nH]1 (stereo partly drawn) [Example 31, 2-amino-9-[(5R,7R,8S,12aR,14R,15R,15aS,16R)-16-fluoro-15-hydroxy-2,10-dioxido-14-(5-oxoimidazo [1,2-a]pyrimidin-8(5H)-yl)-2,10-disulfanyloctahydro-12H-5,8-methanofuro[3,2-l][1,3,6,9,11,2,10]pentaoxadiphosphacyclotetradecin-7-yl]-1,9-dihydro-6H-purin-6-one] | 16 nM | 28% | – | – |
| Nc1ccnc2c1ccn2[C@H]1C[C@@H]2OP(=O)(S)OC[C@H]3O[C@@H](n4ccc(=O)n5ccnc45)[C@H](OP(=O)(S)OC[C@H]2O1)[C@@H]3O (stereo partly drawn) [Example 34, 8-[(5R,7R,8R,12aR,14R,15aS,16R)-14-(4-amino-1H-pyrrolo[2,3-b]pyridin-1-yl)-16-hydroxy-2,10-dioxido-2,10-disulfanyloctahydro-12H-5,8-methanofuro[3,2-l][1,3,6,9,11,2,10]pentaoxadiphosphacyclotetradecin-7-yl]imidazo[1,2-a]pyrimidin-5(8H)-one] | 1120 nM | 157% | – | – |
| Nc1nc2c(ncn2[C@@H]2S[C@@H]3COP(=O)(S)O[C@H]4[C@H](F)[C@H](n5ccc6c(=O)[nH]cnc65)O[C@@H]4COP(=O)(S)O[C@@H]2C3)c(=O)[nH]1 (stereo partly drawn) [Example 44, 2-amino-9-[(5S,7R,8R,12aR,14R,15S,15aR)-15-fluoro-2,10-dioxido-14-(4-oxo-3,4-dihydro-7H-pyrrolo[2,3-d]pyrimidin-7-yl)-2,10-disulfanyl-octahydro-12H-5,8-methanofuro[3,2-l] [1,3,9,11,6,2,10]tetraoxathiadiphosphacyclotetradecin-7-yl]-1,9-dihydro-6H-purin-6-one] | 1 nM | 164% | – | – |
| Nc1cc2c(ncn2[C@@H]2O[C@@H]3COP(=O)(S)O[C@H]4[C@H](F)[C@H](n5ccc6c(=O)[nH]cnc65)O[C@@H]4COP(=O)(S)O[C@@H]2[C@@H]3F)c(=O)[nH]1 (stereo partly drawn) [Example 51, 6-amino-1-[(5R,7R,8S,12aR,14R,15S,15aR,16R)-15,16-difluoro-2,10-dioxido-14-(4-oxo-3,4-dihydro-7H-pyrrolo[2,3-d]pyrimidin-7-yl)-2,10-disulfanyl-octahydro-12H-5,8-methanofuro[3,2-l] [1,3,6,9,11,2,10]pentaoxadiphosphacyclotetradecin-7-yl]-1,5-dihydro-4H-imidazo[4,5-c]pyridin-4-one] | 13 nM | 113% | – | – |
| Nc1nc2c(ncn2[C@@H]2O[C@@H]3COP(=O)(O)O[C@H]4C[C@H](n5ccc6c(=O)[nH]cnc65)O[C@@H]4COP(=O)(S)O[C@@H]2C3)c(=O)[nH]1 (stereo partly drawn) [Example 54, 2-amino-9-[(5S,7R,8R,12aR,14R,15aS)-2-hydroxy-2,10-dioxido-14-(4-oxo-3,4-dihydro-7H-pyrrolo[2,3-d]pyrimidin-7-yl)-10-sulfanyloctahydro-12H-5,8-methanofuro[3,2-l][1,3,6,9,11,2,10]pentaoxadiphosphacyclotetradecin-7-yl]-1,9-dihydro-6H-purin-6-one] | 12 nM | – | – | 68% |
